Measurements reported in patent US9239331B2, “Method for predicting the response to HER2-directed therapy” (Ventana Medical Systems, Inc., priority 2002, dated 2016).

System: breast cancer patients
Assay: Patient response in breast cancer tissue microarray cohort: chemotherapy together with HERCEPTIN®, response from case histories at last follow-up
Assay type: in vivo, human
Conditions: treatment following surgery (followed by Herceptin ®)
Protocol: Immunohistochemistry for detecting and measuring predictive biomarker expression, activation or both was performed as follows. HER2/neu, EGFR, HER3, IGFR, TGF-α, Heregulin (NDF), p-ERK, p-AKT, and p-S6 ribosomal protein or phosphorylation levels were quantified using alkaline phosphatase or peroxidase techniques and microscope-based image analysis of immunohistochemically stained slides (as described in Bacus et al., 1997, Analyt. Quant. Cytol. Histol. 19: 316-328). Quantification was by means of a CAS 200 image analyzer, as previously described (Bacus & Ruby, 1993, Pathol Annu, 28: 179-204). For the purpose of the analysis, tumors were classified as negative or positive for each antibody based upon the level of staining. Statistical analysis was performed using Systat to quantify frequencies and calculate Pearson Chi-squared tests of significance for interactions between variables. In all cases, the p value refers to the significance of the deviation of the distribution of samples from what would be expected based upon the overall population distribution. Comparisons were performed only on samples for which all relevant data were available. […] All patients had received post-surgical radiotherapy. The tissue samples in the array were taken before treatment. HER2/neu expression had been determined by using the […] system (DAKO, Carpinteria, Calif.) on the original biopsies for all patients. Patient response was based upon the case histories at last follow-up as decided by an independent pathologist provided by Clinomics.

SMILES | disease-free or stable disease [%] | relapse [%]
COc1cccc2c1C(=O)c1c(O)c3c(c(O)c1C2=O)C[C@@](O)(C(=O)CO)C[C@@H]3O[C@H]1C[C@H](N)[C@H](O)[C@H](C)O1 [Doxorubicin] | 2 | 98
CC(=O)O[C@H]1C(=O)[C@@]2(C)[C@H]([C@H](OC(=O)c3ccccc3)[C@]3(O)C[C@H](OC(=O)[C@H](O)[C@@H](NC(=O)c4ccccc4)c4ccccc4)C(C)=C1C3(C)C)[C@]1(OC(C)=O)CO[C@@H]1C[C@@H]2O [Paclitaxel] | 100 | 0
